Assay results published in patent US8354269B2 (priority 2008, dated 2013).
Like-named read-outs stand apart in the source and are kept apart here.

Legend:
[1] = system: Clostridium ljungdahlii DSM13528
Method: (§1) High Performance Liquid Chromatography (HPLC) was used to characterize the level of substrates and products such as for acetate, ethanol, fructose, xylose and pyruvate. HPLC System Agilent 1100 Series. Mobile Phase: 0.0025N Sulphuric Acid. Flow and pressure: 0.800 mL/min. Column: Alltech IOA; Catalog #9648, 150×6.5 mm, particle size 5 μm. Temperature of column: 60° C. Detector: Refractive Index. Temperature of detector: 45° C.
(§2) Method for sample preparation: 400 μL of sample+50 μL of 0.15M ZnSO4+50 μL of 0.15M Ba(OH)2 into an Eppendorf tube. Centrifuge 10 min at 12,000 rpm, 4° C. Transfer 200 μL supernatant into an HPLC vial and inject into the HPLC instrument 5 μL.
(§3) Growth was monitored by measuring the optical density at 600 nm (OD600nm) and metabolites were detected by HPLC.

[2] = system: Clostridium autoethanogenum culture 19630
Method: To determine the cell density in these experiments, the absorbance of the samples was measured at 600 nm (spectrophotometer) and the dry mass determined by extrapolation.
as §1, §2
Sterile 234 ml serum bottles were purged three times with 95% CO, 5% CO2 gas and then evacuated to a vacuum of −5 psi. The serum bottles were charged with 25 ml of LM33 media. Additional NiCl2 solutions were optionally added to the serum bottle (to final concentrations of 0.1 mM and 1 mM) which were inoculated with 1 ml of an actively growing Clostridium autoethanogenum culture 19630 from a continuous bioreactor. The headspace of the serum bottle was then filled with CO containing gas to 30 psi (composition 100% CO). The serum bottles were incubated at 37° C. and continuously agitated. Samples were taken at intervals and the headspace was purged and refreshed up to 30 psi following sampling.

[3] = system: Clostridium carboxidivorans DSM15243;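 further: growth tracked as optical density at 600 nm, while ethanol and acetate were quantified in culture samples by HPLC with a refractive index detector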
Method: as §1, §2, §3

## [Cl][Ni][Cl] [Nickel, nickel chloride]
[1]; Nickel 200 μM, 0 h
  Ethanol: 0.23 ± 0.02 g/L
  OD600 nm: 0.010 ± 0.001
[1]; Nickel 200 μM, 30 h
  Acetate: 0.07 ± 0.07 g/L
  Ethanol: 0.23 ± 0.02 g/L
  OD600 nm: 0.057 ± 0.003
[1]; Nickel 200 μM, 54 h
  Acetate: 0.24 ± 0.10 g/L
  Ethanol: 0.27 ± 0.03 g/L
  OD600 nm: 0.163 ± 0.053
[1]; Nickel 200 μM, 102 h
  Acetate: 0.38 ± 0.10 g/L
  Ethanol: 0.57 ± 0.11 g/L
  OD600 nm: 0.273 ± 0.001
[1]; Nickel 200 μM, 127 h
  Acetate: 0.77 ± 0.24 g/L
  Ethanol: 0.58 ± 0.07 g/L
  OD600 nm: 0.284 ± 0.010
[1]; Nickel 400 μM, 0 h
  Ethanol: 0.22 ± 0.02 g/L
  OD600 nm: 0.011 ± 0.002
[1]; Nickel 400 μM, 30 h
  Ethanol: 0.22 ± 0.01 g/L
  OD600 nm: 0.097 ± 0.024
[1]; Nickel 400 μM, 54 h
  Acetate: 0.15 ± 0.04 g/L
  Ethanol: 0.21 ± 0.02 g/L
  OD600 nm: 0.114 ± 0.030
[1]; Nickel 400 μM, 102 h
  Acetate: 0.20 ± 0.01 g/L
  Ethanol: 0.53 ± 0.31 g/L
  OD600 nm: 0.199 ± 0.103
[1]; Nickel 400 μM, 127 h
  Acetate: 0.30 ± 0.19 g/L
  Ethanol: 0.77 ± 0.24 g/L
  OD600 nm: 0.310 ± 0.017
[1]; Nickel 700 μM, 0 h
  Ethanol: 0.25 ± 0.01 g/L
  OD600 nm: 0.009 ± 0.001
[1]; Nickel 700 μM, 30 h
  Ethanol: 0.24 ± 0.01 g/L
  OD600 nm: 0.235 ± 0.076
[1]; Nickel 700 μM, 54 h
  Acetate: 0.21 ± 0.05 g/L
  Ethanol: 0.35 ± 0.11 g/L
  OD600 nm: 0.427 ± 0.182
[1]; Nickel 700 μM, 102 h
  Acetate: 0.24 ± 0.03 g/L
  Ethanol: 0.73 ± 0.01 g/L
  OD600 nm: 0.579 ± 0.062
[1]; Nickel 700 μM, 127 h
  Acetate: 0.34 ± 0.16 g/L
  Ethanol: 0.82 ± 0.03 g/L
  OD600 nm: 0.528 ± 0.054
[1]; Nickel 1000 μM, 0 h
  Ethanol: 0.24 ± 0.01 g/L
  OD600 nm: 0.011 ± 0.001
[1]; Nickel 1000 μM, 30 h
  Ethanol: 0.26 ± 0.01 g/L
  OD600 nm: 0.549 ± 0.049
[1]; Nickel 1000 μM, 54 h
  Acetate: 0.23 ± 0.02 g/L
  Ethanol: 0.42 ± 0.14 g/L
  OD600 nm: 0.691 ± 0.017
[1]; Nickel 1000 μM, 102 h
  Acetate: 0.31 ± 0.03 g/L
  Ethanol: 0.68 ± 0.26 g/L
  OD600 nm: 0.862 ± 0.324
[1]; Nickel 1000 μM, 127 h
  Acetate: 0.46 ± 0.03 g/L
  Ethanol: 0.98 ± 0.11 g/L
  OD600 nm: 0.853 ± 0.329
[2]; 0.1 mM nickel above LM33
  total microbial cell density: 1.1 g/L
[2]; 1 mM nickel above LM33
  total microbial cell density: 1.2 g/L
[2]; Additional Nickel 0.1 mM, 18 h
  Acetate: 0.57 g/L
  Cell density: 0.14 g/L
  Ethanol: 0.37 g/L
[2]; Additional Nickel 0.1 mM, 30 h
  Acetate: 0.61 g/L
  Cell density: 0.54 g/L
  Ethanol: 2.63 g/L
[2]; Additional Nickel 0.1 mM, 80 h
  Acetate: 0.38 g/L
  Cell density: 1.08 g/L
  Ethanol: 7.14 g/L
[2]; Additional Nickel 1 mM, 18 h
  Acetate: 0.48 g/L
  Cell density: 0.18 g/L
  Ethanol: 0.47 g/L
[2]; Additional Nickel 1 mM, 30 h
  Acetate: 0.85 g/L
  Cell density: 0.59 g/L
  Ethanol: 2.59 g/L
[2]; Additional Nickel 1 mM, 80 h
  Acetate: 0.66 g/L
  Cell density: 1.23 g/L
  Ethanol: 9.04 g/L
[3]; Nickel 200 μM, 0 h
  Ethanol: 0.18 ± 0.01 g/L
  OD600 nm: 0.010 ± 0.001
[3]; Nickel 200 μM, 30 h
  Acetate: 0.37 ± 0.13 g/L
  Ethanol: 0.18 ± 0.01 g/L
  OD600 nm: 0.185 ± 0.052
[3]; Nickel 200 μM, 54 h
  Acetate: 0.38 ± 0.02 g/L
  Ethanol: 0.33 ± 0.02 g/L
  OD600 nm: 0.239 ± 0.028
[3]; Nickel 200 μM, 102 h
  Acetate: 0.43 ± 0.09 g/L
  Ethanol: 0.33 ± 0.19 g/L
  OD600 nm: 0.274 ± 0.025
[3]; Nickel 200 μM, 127 h
  Acetate: 0.61 ± 0.02 g/L
  Ethanol: 6.69 ± 0.08 g/L
  OD600 nm: 0.285 ± 0.046
[3]; Nickel 400 μM, 0 h
  Ethanol: 0.18 ± 0.06 g/L
  OD600 nm: 0.011 ± 0.002
[3]; Nickel 400 μM, 30 h
  Acetate: 0.35 ± 0.02 g/L
  Ethanol: 0.33 ± 0.11 g/L
  OD600 nm: 0.271 ± 0.001
[3]; Nickel 400 μM, 54 h
  Acetate: 0.41 ± 0.02 g/L
  Ethanol: 0.75 ± 0.01 g/L
  OD600 nm: 0.310 ± 0.037
[3]; Nickel 400 μM, 102 h
  Acetate: 0.37 ± 0.19 g/L
  Ethanol: 0.86 ± 0.03 g/L
  OD600 nm: 0.304 ± 0.035
[3]; Nickel 400 μM, 127 h
  Acetate: 0.47 ± 0.03 g/L
  Ethanol: 0.89 ± 0.08 g/L
  OD600 nm: 0.291 ± 0.026
[3]; Nickel 700 μM, 0 h
  Ethanol: 0.20 ± 0.01 g/L
  OD600 nm: 0.010 ± 0.001
[3]; Nickel 700 μM, 30 h
  Acetate: 0.34 ± 0.01 g/L
  Ethanol: 0.27 ± 0.01 g/L
  OD600 nm: 0.402 ± 0.014
[3]; Nickel 700 μM, 54 h
  Acetate: 0.40 ± 0.05 g/L
  Ethanol: 0.84 ± 0.03 g/L
  OD600 nm: 0.689 ± 0.097
[3]; Nickel 700 μM, 102 h
  Acetate: 0.65 ± 0.06 g/L
  Ethanol: 0.86 ± 0.25 g/L
  OD600 nm: 0.519 ± 0.078
[3]; Nickel 700 μM, 127 h
  Acetate: 0.63 ± 0.32 g/L
  Ethanol: 1.01 ± 0.17 g/L
  OD600 nm: 0.584 ± 0.088
[3]; Nickel 1000 μM, 0 h
  Ethanol: 0.18 ± 0.01 g/L
  OD600 nm: 0.009 ± 0.001
[3]; Nickel 1000 μM, 30 h
  Acetate: 0.29 ± 0.04 g/L
  Ethanol: 0.44 ± 0.09 g/L
  OD600 nm: 0.705 ± 0.014
[3]; Nickel 1000 μM, 54 h
  Acetate: 0.39 ± 0.02 g/L
  Ethanol: 0.74 ± 0.05 g/L
  OD600 nm: 1.058 ± 0.006
[3]; Nickel 1000 μM, 102 h
  Acetate: 0.62 ± 0.21 g/L
  Ethanol: 0.88 ± 0.03 g/L
  OD600 nm: 0.943 ± 0.002
[3]; Nickel 1000 μM, 127 h
  Acetate: 0.47 ± 0.11 g/L
  Ethanol: 1.04 ± 0.02 g/L
  OD600 nm: 0.981 ± 0.088
